Consider 22 compounds from patent US8440708B2, “Triazole-substituted arylamides as P2X3 and P2X2/3 antagonists” (Roche Palo Alto LLC, priority 2007, dated 2013).

One assay has as its target T1, rat P2X3 receptor (Rattus norvegicus, UniProt P49654).
T1 construct: expressed in transfected cells; host or cells: CHO-K1
T1 sequence (P49654 1-397): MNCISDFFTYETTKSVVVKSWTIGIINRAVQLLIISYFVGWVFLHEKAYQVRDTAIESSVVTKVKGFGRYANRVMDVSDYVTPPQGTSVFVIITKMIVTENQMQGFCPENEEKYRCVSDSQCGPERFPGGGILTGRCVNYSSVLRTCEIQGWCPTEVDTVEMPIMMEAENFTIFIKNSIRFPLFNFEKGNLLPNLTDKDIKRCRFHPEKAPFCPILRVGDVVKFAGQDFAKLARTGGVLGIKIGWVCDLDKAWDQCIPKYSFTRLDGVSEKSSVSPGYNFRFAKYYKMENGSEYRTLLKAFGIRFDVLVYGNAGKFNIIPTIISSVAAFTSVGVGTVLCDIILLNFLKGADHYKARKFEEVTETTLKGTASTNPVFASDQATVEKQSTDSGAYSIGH
Nature of the assay: P2X3/P2X2/3 FLIPR (Fluorometric Imaging Plate Reader) Assay, P2X3. It is filed as cell-based. As to conditions: CHO-K1 cells transfected with rat P2X3; agonist α,β-meATP 1 μM; Table 1; read-out: P2X3 pKi (converted). In outline:
(§1)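 Transfected CHO-K1 cells loaded with Fluo-3 AM (2 μM final) for 1 h at 37 °C, then compound preincubated 20 min at room temperature. α,β-meATP challenge at 1 μM (P2X3) or 5 μM (P2X2/3) final; peak calcium fluorescence (ex 488, em 510-570 nm) over 2 min fitted by nonlinear regression to inhibition curves.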

The next assay concerns the target T2, human P2X2/3 receptor (Homo sapiens, UniProt P56373+Q9UBL9).
T2 construct: expressed in transfected cells; host or cells: CHO-K1
T2 sequence (Q9UBL9 1-471): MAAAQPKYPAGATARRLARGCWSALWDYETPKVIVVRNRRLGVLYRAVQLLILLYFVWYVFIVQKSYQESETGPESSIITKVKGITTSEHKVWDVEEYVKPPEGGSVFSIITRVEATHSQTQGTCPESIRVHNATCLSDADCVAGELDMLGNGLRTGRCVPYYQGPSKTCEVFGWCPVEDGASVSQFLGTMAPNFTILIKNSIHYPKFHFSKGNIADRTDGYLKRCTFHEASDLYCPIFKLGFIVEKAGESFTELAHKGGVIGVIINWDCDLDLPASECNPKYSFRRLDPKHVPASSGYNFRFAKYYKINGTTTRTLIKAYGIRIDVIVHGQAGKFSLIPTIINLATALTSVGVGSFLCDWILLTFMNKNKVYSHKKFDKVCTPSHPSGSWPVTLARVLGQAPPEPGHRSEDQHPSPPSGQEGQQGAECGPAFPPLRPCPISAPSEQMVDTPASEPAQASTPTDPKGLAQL
T2 sequence (P56373 1-397): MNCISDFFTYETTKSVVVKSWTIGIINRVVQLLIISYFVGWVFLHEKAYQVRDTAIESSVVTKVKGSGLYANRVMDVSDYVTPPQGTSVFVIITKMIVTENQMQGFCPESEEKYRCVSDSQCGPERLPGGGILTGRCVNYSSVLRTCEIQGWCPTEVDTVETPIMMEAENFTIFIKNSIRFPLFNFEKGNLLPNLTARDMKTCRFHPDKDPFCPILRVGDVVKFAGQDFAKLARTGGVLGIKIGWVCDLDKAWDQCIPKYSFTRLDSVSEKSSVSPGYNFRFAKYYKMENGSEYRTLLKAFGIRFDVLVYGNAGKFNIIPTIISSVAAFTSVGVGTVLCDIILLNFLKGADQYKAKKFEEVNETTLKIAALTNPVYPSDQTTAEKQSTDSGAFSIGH
Nature of the assay: P2X3/P2X2/3 FLIPR (Fluorometric Imaging Plate Reader) Assay, P2X2/3. The format is cell-based. To be noted: CHO-K1 cells transfected with human P2X2/3; agonist α,β-meATP 5 μM; Table 1; read-out: P2X2/3 pKi (converted). In outline: as §1

On to `Cc1ccc(-c2cc(C(=O)NCc3cnc(C)cn3)cc(-n3ncnc3C3CC3)c2)nc1` [Compound 125, 3-(5-Cyclopropyl-[1,2,4]triazol-1-yl)-N-(5-methyl-pyrazin-2-ylmethyl)-5-(5-methyl-pyridin-2-yl)-benzamide], for which the Ki at rat P2X3 receptor is 19.1 nM; on human P2X2/3 receptor, 245 nM.

For `CCc1ncnn1-c1cc(C(=O)NC2CC2)cc(-c2ccc(C)cn2)c1` [Compound 126, N-Cyclopropyl-3-(5-ethyl-[1,2,4]triazol-1-yl)-5-(5-methyl-pyridin-2-yl)-benzamide], the Ki at rat P2X3 receptor was 29.5 nM; on human P2X2/3 receptor it was 3720 nM.

`CCc1ncnn1-c1cc(C(=O)N[C@@H](C)CO)cc(-c2ccc(C)cn2)c1` [Compound 127, 3-(5-Ethyl-[1,2,4]triazol-1-yl)-N-((S)-2-hydroxy-1-methyl-ethyl)-5-(5-methyl-pyridin-2-yl)-benzamide]: the Ki on rat P2X3 receptor is 24.5 nM; at human P2X2/3 receptor, 6920 nM.

As for `CCc1ncnn1-c1cc(C(=O)NC(C)c2cnccn2)cc(-c2ccc(C)cn2)c1` (centres unmarked) [Compound 128, 3-(5-Ethyl-[1,2,4]triazol-1-yl)-5-(5-methyl-pyridin-2-yl)-N-(1-pyrazin-2-yl-ethyl)-benzamide], the Ki on rat P2X3 receptor is 10.2 nM; at human P2X2/3 receptor, 257 nM.

`CCc1ncnn1-c1cc(C(=O)NCc2cnc(C)cn2)cc(-c2ccc(C)cn2)c1` [Compound 129, 3-(5-Ethyl-[1,2,4]triazol-1-yl)-N-(5-methyl-pyrazin-2-ylmethyl)-5-(5-methyl-pyridin-2-yl)-benzamide]: the figures for the Ki on rat P2X3 receptor and at human P2X2/3 receptor were 4.9 nM and 79.4 nM, respectively.

Consider `Cc1ccc(-c2cc(C(=O)NC3CC3)cc(-n3ncnc3CC(C)C)c2)nc1` [Compound 130, N-Cyclopropyl-3-(5-isobutyl-[1,2,4]triazol-1-yl)-5-(5-methyl-pyridin-2-yl)-benzamide], for which the values for the Ki at rat P2X3 receptor and on human P2X2/3 receptor were 4.27 nM and 182 nM, respectively.

With `Cc1ccc(-c2cc(C(=O)N[C@@H](C)CO)cc(-n3ncnc3CC(C)C)c2)nc1` [Compound 131, N-((S)-2-Hydroxy-1-methyl-ethyl)-3-(5-isobutyl-[1,2,4]triazol-1-yl)-5-(5-methyl-pyridin-2-yl)-benzamide], the values for the Ki at rat P2X3 receptor and on human P2X2/3 receptor were 3.72 nM and 158 nM, respectively.

In the case of `Cc1ccc(-c2cc(C(=O)NCc3cnc(C)cn3)cc(-n3ncnc3C(C)C)c2)nc1` [Compound 132, 3-(5-Isopropyl-[1,2,4]triazol-1-yl)-N-(5-methyl-pyrazin-2-ylmethyl)-5-(5-methyl-pyridin-2-yl)-benzamide], the Ki on rat P2X3 receptor is 3.31 nM; on human P2X2/3 receptor, 38.9 nM.

`COC(C)c1ncnn1-c1cc(C(=O)NCc2cnc(C)cn2)cc(-c2ccc(C)cn2)c1` (centres unmarked) [Compound 133, 3-[5-(1-Methoxy-ethyl)-[1,2,4]triazol-1-yl]-N-(5-methyl-pyrazin-2-ylmethyl)-5-(5-methyl-pyridin-2-yl)-benzamide]: the Ki on rat P2X3 receptor was 11 nM; at human P2X2/3 receptor, 295 nM.

Turning to `COC(C)c1ncnn1-c1cc(C(=O)NCc2cnc(C)cn2)cc(-c2ccc(C)cc2)c1` (centres unmarked) [Compound 134, 5-[5-(1-Methoxy-ethyl)-[1,2,4]triazol-1-yl]-4′-methyl-biphenyl-3-carboxylic acid (5-methyl-pyrazin-2-ylmethyl)-amide], the Ki on rat P2X3 receptor was 6.61 nM; at human P2X2/3 receptor, 38 nM.

As for `Cc1ccc(-c2cc(C(=O)NCc3cnc(C)cn3)cc(-n3ncnc3C(C)C)c2)c(F)c1` [Compound 135, 2′-Fluoro-5-(5-isopropyl-[1,2,4]triazol-1-yl)-4′-methyl-biphenyl-3-carboxylic acid (5-methyl-pyrazin-2-ylmethyl)-amide], the Ki is 4.79 nM on rat P2X3 receptor and 25.7 nM at human P2X2/3 receptor.

Regarding `Cc1ccc(-c2cc(C(=O)NCc3cnc(C)cn3)cc(-n3ncnc3C(C)C)c2)cc1` [Compound 136, 5-(5-Isopropyl-[1,2,4]triazol-1-yl)-4′-methyl-biphenyl-3-carboxylic acid (5-methyl-pyrazin-2-ylmethyl)-amide], the values for the Ki at rat P2X3 receptor and on human P2X2/3 receptor were 5.37 nM and 20.9 nM, respectively.

Regarding `Cc1ccc(-c2cc(C(=O)NCc3cnc(C)cn3)cc(-c3ncnn3C(C)C)c2)cc1` [Compound 137, 5-(2-Isopropyl-2H-[1,2,4]triazol-3-yl)-4′-methyl-biphenyl-3-carboxylic acid (5-methyl-pyrazin-2-ylmethyl)-amide], the results for the Ki at rat P2X3 receptor and on human P2X2/3 receptor were 11.5 nM and 398 nM, respectively.

For `COc1nnc(C(C)C)n1-c1cc(C(=O)NCc2cnc(C)cn2)cc(-c2ccc(C)cc2)c1` [Compound 138, 5-(3-Isopropyl-5-methoxy-[1,2,4]triazol-4-yl)-4′-methyl-biphenyl-3-carboxylic acid (5-methyl-pyrazin-2-ylmethyl)-amide], the Ki is 724 nM on rat P2X3 receptor and 4170 nM at human P2X2/3 receptor.

Consider `Cc1ccc(-c2cc(C(=O)NC3CC3)cc(-n3ncnc3C(C)N(C)C)c2)nc1` (centres unmarked) [Compound 139, N-Cyclopropyl-3-[5-(1-dimethylamino-ethyl)-[1,2,4]triazol-1-yl]-5-(5-methyl-pyridin-2-yl)-benzamide], for which the Ki at rat P2X3 receptor is 27.5 nM; on human P2X2/3 receptor it was 1700 nM.

Take `Cc1ccc(-c2cc(C(=O)N[C@@H](C)CO)cc(-n3ncnc3C(C)N(C)C)c2)nc1` (stereo partly drawn) [Compound 140, 3-[5-(1-Dimethylamino-ethyl)-[1,2,4]triazol-1-yl]-N-((S)-2-hydroxy-1-methyl-ethyl)-5-(5-methyl-pyridin-2-yl)-benzamide]: the Ki on rat P2X3 receptor was 20 nM; on human P2X2/3 receptor, 2750 nM.

On to `Cc1ccc(-c2cc(C(=O)NCc3cnc(C)cn3)cc(-n3ncnc3C(C)N(C)C)c2)nc1` (centres unmarked) [Compound 141, 3-[5-(1-Dimethylamino-ethyl)-[1,2,4]triazol-1-yl]-N-(5-methyl-pyrazin-2-ylmethyl)-5-(5-methyl-pyridin-2-yl)-benzamide], for which the Ki at rat P2X3 receptor is 12.3 nM; at human P2X2/3 receptor, 214 nM.

Consider `Cc1ccc(-c2cc(C(=O)NC(C)c3cnccn3)cc(-n3ncnc3C(C)N(C)C)c2)nc1` (centres unmarked) [Compound 142, 3-[5-(1-Dimethylamino-ethyl)-[1,2,4]triazol-1-yl]-5-(5-methyl-pyridin-2-yl)-N-(1-pyrazin-2-yl-ethyl)-benzamide], for which the Ki on rat P2X3 receptor is 9.12 nM; on human P2X2/3 receptor it was 229 nM.

On to `Cc1ccc(-c2cc(C(=O)NCc3cnc(C)cn3)cc(-n3ncnc3-c3ccccc3)c2)nc1` [Compound 143, N-(5-Methyl-pyrazin-2-ylmethyl)-3-(5-methyl-pyridin-2-yl)-5-(5-phenyl-[1,2,4]triazol-1-yl)-benzamide], for which the Ki was 20.9 nM at rat P2X3 receptor and 1120 nM on human P2X2/3 receptor.

With `Cc1ccc(-c2cc(C(=O)N[C@@H](C)CO)cc(-n3ncnc3-c3ccccc3)c2)nc1` [Compound 144, N-((S)-2-Hydroxy-1-methyl-ethyl)-3-(5-methyl-pyridin-2-yl)-5-(5-phenyl-[1,2,4]triazol-1-yl)-benzamide], the results for the Ki on rat P2X3 receptor and on human P2X2/3 receptor were 182 nM and 8910 nM, respectively.

Turning to `Cc1ccc(-c2cc(C(=O)NCc3cnc(C)cn3)cc(-n3ncnc3CC(F)F)c2)nc1` [Compound 145, 3-[5-(2,2-Difluoro-ethyl)-[1,2,4]triazol-1-yl]-N-(5-methyl-pyrazin-2-ylmethyl)-5-(5-methyl-pyridin-2-yl)-benzamide], the Ki at rat P2X3 receptor was 3.31 nM; at human P2X2/3 receptor it was 107 nM.

With `COCCc1ncnn1-c1cc(C(=O)NCc2cnc(C)cn2)cc(-c2ccc(C)cn2)c1` [Compound 147, 3-[5-(2-Methoxy-ethyl)-[1,2,4]triazol-1-yl]-N-(5-methyl-pyrazin-2-ylmethyl)-5-(5-methyl-pyridin-2-yl)-benzamide], the Ki was 4.57 nM on rat P2X3 receptor and 2450 nM on human P2X2/3 receptor.
